Test results reported in patent publication US5266589A, “Method of increasing the muscle/fat ratio in agricultural domestic animals” (Duphar International Research B.V., priority 1990, dated 1993).
“Also recorded” adds a separate entry of the source. Where two headings read alike, the source gives them in different places.

Assays:
right atrium = assay: Heart activity: chronotropic effect on isolated right atria, in relation to Isoprenaline; format: cell-based, male Wistar rats; conditions: for Emax: read-out: Chronotropic effect on the right atrium: i.a. (intrinsic activity); for EC50: read-out: Chronotropic effect on the right atrium: pEC50 (converted)
Experimental: The heart activity has been determined in heart tissue of rats. It is known that rats are just as suitable for the determination of the heart activity (chronotropy) as the agricultural domestic animals mentioned hereinbefore.
The substances are tested with respect to their chronotropic effect on isolated right atria under a pre-load with 0.5 g, in an organ bath which contains the above Krebs buffer solution and is kept at 37° C. Dose-response curves with Isoprenaline® are determined. The results are again expressed as pEC50 values and, in relation to Isoprenaline®, as intrinsic activities ("i.a.").

ovine adipocytes = assay: Lipolytic activity on isolated ovine adipocytes (FFA production), in relation to Isoprenaline; format: cell-based, sheep
Source text: It is known, for example, from a contribution by R. G. Vernon in "New perspectives in Adipose Tissue; structure, function and development", page 76, edited by Cryer and Van, Butterworths 1984, London, that there exists a good relationship between the lipolytic activity on the one hand and the activity as a repartitioning agent on the other hand. This means that a high value for the lipolytic activity is predictable for the increase of the muscle/fat ratio and for improving the growth and the feed efficiency of agricultural domestic animals. The influence of the tested compounds on the lipolysis of adipocytes is described in example I hereinafter. Bovine and ovine adipocytes, i.e. adipocytes of representative examples of agricultural domestic animals, have been used in this example.
Pieces of adipose tissue of approximately 600×600 μm, isolated from bovine animals or sheep, are provided in a teflon container containing: 3 ml of Krebs-Henseleit buffer having a pH of 7.4, 1% w/v of demineralized bovine serum albumin (BSA), 0.33 mg/ml of collagenase and 200 nM of adenosine. The adipocytes are isolated by shaking the container at 37° C. under carbogen gassing (approximately 5% CO2 in 95% O2). After 1 hour the suspension is filtered through nylon gauze (100 μm) and washed 2 times with Krebs-Henseleit buffer at room temperature. The incubations are carried out in duplicate, each incubation mixture consisting of 50 μl of the filtered cell suspension, 100 μl of the compound to be tested, 2% w/v of BSA and 50 μg/ml of Na2 S2 O5 (antioxidant) in 2.85 ml of Krebs-Henseleit buffer. Incubation: 90 minutes at 37° C. while shaking and gassing with carbogen. […] In the organic layer the produced free fatty acids (FFA) are determined. […] The yellow color is measured in a colorimeter and is a measure of the FFA-production. […] In addition to the fond pEC50 values, the values for the intrinsic activity ("i.a.") have been recorded in Table A hereinafter. The intrinsic activity is the maximally achievable activity, also measured again with respect to Isoprenaline®.

bovine adipocytes = assay: Lipolytic activity on isolated bovine adipocytes (FFA production), in relation to Isoprenaline; format: cell-based; conditions: for EC50 / Emax: Bos taurus, Adipocyte; for EC50: 1.5 h, read-out: Lipolytic activity: pEC50 (converted); for Emax: read-out: Lipolytic activity: i.a. (intrinsic activity)
Experimental: Pieces of adipose tissue of approximately 600×600 μm, isolated from bovine animals or sheep, are provided in a teflon container containing: 3 ml of Krebs-Henseleit buffer having a pH of 7.4, 1% w/v of demineralized bovine serum albumin (BSA), 0.33 mg/ml of collagenase and 200 nM of adenosine. […] After 1 hour the suspension is filtered through nylon gauze (100 μm) and washed 2 times with Krebs-Henseleit buffer at room temperature. The incubations are carried out in duplicate, each incubation mixture consisting of 50 μl of the filtered cell suspension, 100 μl of the compound to be tested, 2% w/v of BSA and 50 μg/ml of Na2 S2 O5 (antioxidant) in 2.85 ml of Krebs-Henseleit buffer. Incubation: 90 minutes at 37° C. while shaking and gassing with carbogen. After the incubation, extraction is carried out with 3 ml of 2-propanol/n-hexane/1N-H2 SO4 (40:20:1) mixture. In the organic layer the produced free fatty acids (FFA) are determined. This determination is carried out as follows: 150 μl of sample are diluted with 1 ml of chloroform and then mixed with copper reagent (10% Cu(NO3)2 /2M triethanolamine/2N acetic acid=10:9:1); 0.2% w/v of sodium diethyldithiocarbamate is added. The yellow color is measured in a colorimeter and is a measure of the FFA-production. […] The intrinsic activity is the maximally achievable activity, also measured again with respect to Isoprenaline®.

swine adipose tissue = conditions: Mersmann, cited from earlier work; for lipolytic activity, in words: pigs
heart = conditions: in the dosages required for the intended purpose; cited from earlier work
heart rate = conditions: pig, in vivo; cited from earlier work
[1] = compared with tested known substances / in the concentration required for the intended use

Structure (SMILES): CC(C)(Cc1ccc(O)cc1)NCC(O)c1cc(O)cc(O)c1 (stereo not shown) [(1), 1-(3,5-dihydroxyphenyl)-2-[1,1-dimethyl-2-(4-hydroxyphenyl)ethylamino]ethanol]
- Emax (right atrium; Rattus norvegicus): 40%
- EC50 (right atrium; Rattus norvegicus): 2510 nM
- heart activity, in words (right atrium; [1]): considerably lower than that of the substances Ractopamine®, Fenoterol® and Clenbuterol®; also recorded: without a burdensome heart activity being experienced
- heart activity, in words (right atrium; compared with tested known substances / in the concentration required for the intended use, listed as 1-(3,5-dihydroxyphenyl)-2-[1,1-dimethyl-2-(4-hydroxyphenyl)-ethylamino]ethanol): low heart effect
- lipolytic activity on ovine adipocytes, in words (ovine adipocytes): remarkably high lipolytic activity
- EC50 (ovine adipocytes; Ovis aries, Adipocyte, 1.5 h, 90 minutes at 37° C., pEC50 = negative logarithm of concentration at 50% of maximum effect): 501 nM
- Emax (ovine adipocytes; Ovis aries, Adipocyte, maximally achievable activity with respect to Isoprenaline, read-out: Lipolytic activity: i.a. (intrinsic activity)): 140%
- EC50 (bovine adipocytes): 3160 nM
- Emax (bovine adipocytes): 80%
- lipolytic activity on bovine adipocytes, in words (bovine adipocytes; bovine adipocytes): remarkably high lipolytic activity
- intrinsic lipolytic activity, comparison in words (bovine adipocytes; versus Ractopamine and Clenbuterol): significantly higher than that of the phenylalkylamino derivatives Ractopamine® and Clenbuterol®
- lipolytic activity, in words (swine adipose tissue): low lipolytic activity
- relative ED50 (lipolysis) (swine adipose tissue; swine adipose tissue, relative to Fenoterol): approximately ten times as high as that of Fenoterol®

Structure (SMILES): CC(Cc1ccc(O)cc1)NCC(O)c1cc(O)cc(O)c1 (stereo not shown) [Fenoterol]
- Emax (right atrium; Rattus norvegicus): 100%
- EC50 (right atrium; Rattus norvegicus): 251 nM
- heart activity, in words (right atrium; [1]): considerable heart activity in the concentration required for the intended purpose
- EC50 (bovine adipocytes): 794 nM
- Emax (bovine adipocytes): 80%

Structure (SMILES): CC(CCc1ccc(O)cc1)NCC(O)c1ccc(O)cc1 (stereo not shown) [Ractopamine]
- heart activity, in words (right atrium): considerable heart activity in the required concentration
- Emax (right atrium; isolated rat right atria, in relation to Isoprenaline): 100%
- EC50 (right atrium; isolated rat right atria, pre-load 0.5 g, Krebs buffer, 37° C.): 31.6 nM
- side effects on the heart, in words (heart): serious side effects because in the dosages required for the intended purpose an undesired influence on the heart is exerted
- EC50 (bovine adipocytes; bovine adipocytes, 90 minutes at 37° C., pEC50 = negative logarithm of concentration at 50% of maximum effect): 2510 nM
- Emax (bovine adipocytes; bovine adipocytes, maximally achievable activity with respect to Isoprenaline): 60%

Structure (SMILES): CC(C)(C)NCC(O)c1cc(O)cc(O)c1 (stereo not shown) [terbutaline]
- increasing heart rate, in words (heart rate): more active in increasing heart rate
- lipolytic activity, in words (swine adipose tissue): less active in lipolysis

Structure (SMILES): CC(C)(C)NCC(O)c1cc(Cl)c(N)c(Cl)c1 (stereo not shown) [Clenbuterol]
- Emax (right atrium; Rattus norvegicus): 40%
- EC50 (right atrium; Rattus norvegicus): 50.1 nM
- side effects on the heart, in words (heart): serious side effects because in the dosages required for the intended purpose an undesired influence on the heart is exerted
- EC50 (bovine adipocytes): 1580 nM
- Emax (bovine adipocytes): 30%
